# Measurements reported in ChEMBL document CHEMBL3885861, “Open TG-GATES”.
# Species on record: Rattus norvegicus
# Test: Open TG-GATES - Regimen: Single
# Format: toxicity, organism-based, Sprague-Dawley
# Design: regimen Single, gender Male, age 6 weeks
# Conditions: in vivo, po, 75 mg/kg, route gavage, dose level Low; for APTT / Bas / Eos / Fbg / Hb / Ht / Lym / MCH / MCHC / MCV / Mono / Neu / PT / Plat / RBC / Ret / WBC: tissue Blood; for KIDNEY_L / KIDNEY_R / KIDNEY_TOTAL: tissue Kidney; for LIVER: tissue Liver; for A/G / ALP / ALT / AST / BUN / CRE / Ca / Cl / DBIL / GLC / IP / K / LDH / Na / PL / RALB / TBIL / TC / TG / TP / gamma-GTP: tissue Plasma
structure (smiles),measurement,setting,value
CN(C/C=C/C#CC(C)(C)C)Cc1cccc2ccccc12 [TERBINAFINE],TERMINAL_BW,3 h,225.9 g
same,APTT,3 h,19.4 s
same,Bas,3 h,0.8%
same,Eos,3 h,1%
same,Fbg,3 h,219 mg/dL
same,Hb,3 h,13.2 g/dL
same,Ht,3 h,39.1%
same,Lym,3 h,82.2%
same,MCH,3 h,21.2 pg
same,MCHC,3 h,33.8%
same,MCV,3 h,62.7 fL
same,Mono,3 h,2.2%
same,Neu,3 h,14%
same,PT,3 h,12 s
same,Plat,3 h,116.2 x10_4/uL
same,RBC,3 h,625.2 x10_4/ul
same,Ret,3 h,7.3%
same,WBC,3 h,88.5 x10_2/uL
same,KIDNEY_L,3 h,1 g
same,KIDNEY_R,3 h,1 g
same,KIDNEY_TOTAL,3 h,2 g
same,LIVER,3 h,10.4 g
same,A/G,3 h,1.6
same,ALP,3 h,998 IU/L
same,ALT,3 h,38.6 IU/L
same,AST,3 h,69 IU/L
same,BUN,3 h,11.8 mg/dL
same,CRE,3 h,0.4 mg/dL
same,Ca,3 h,10.7 mg/dL
same,Cl,3 h,102.6 meq/L
same,DBIL,3 h,0.088 mg/dL
same,GLC,3 h,202.8 mg/dL
same,IP,3 h,9.5 mg/dL
same,K,3 h,3.8 meq/L
same,LDH,3 h,161.4 IU/L
same,Na,3 h,141.4 meq/L
same,PL,3 h,143.6 mg/dL
same,RALB,3 h,3.4 g/dL
same,TBIL,3 h,0.1 mg/dL
same,TC,3 h,79.4 mg/dL
same,TG,3 h,51.2 mg/dL
same,TP,3 h,5.5 g/dL
same,gamma-GTP,3 h,0.8 IU/L
same,TERMINAL_BW,6 h,221.9 g
same,APTT,6 h,19.3 s
same,Bas,6 h,0.8%
same,Eos,6 h,1%
same,Fbg,6 h,224.2 mg/dL
same,Hb,6 h,13.5 g/dL
same,Ht,6 h,40%
same,Lym,6 h,78.8%
same,MCH,6 h,21.3 pg
same,MCHC,6 h,33.7%
same,MCV,6 h,63.1 fL
same,Mono,6 h,2.4%
same,Neu,6 h,17.2%
same,PT,6 h,12.1 s
same,Plat,6 h,113 x10_4/uL
same,RBC,6 h,634 x10_4/ul
same,Ret,6 h,6.9%
same,WBC,6 h,114.1 x10_2/uL
same,KIDNEY_L,6 h,1 g
same,KIDNEY_R,6 h,1 g
same,KIDNEY_TOTAL,6 h,2 g
same,LIVER,6 h,10.2 g
same,A/G,6 h,1.6
same,ALP,6 h,872.2 IU/L
same,ALT,6 h,34.6 IU/L
same,AST,6 h,66 IU/L
same,BUN,6 h,10.6 mg/dL
same,CRE,6 h,0.4 mg/dL
same,Ca,6 h,10.9 mg/dL
same,Cl,6 h,102.2 meq/L
same,DBIL,6 h,0.086 mg/dL
same,GLC,6 h,200 mg/dL
same,IP,6 h,9.3 mg/dL
same,K,6 h,4 meq/L
same,LDH,6 h,147 IU/L
same,Na,6 h,140.8 meq/L
same,PL,6 h,143.2 mg/dL
same,RALB,6 h,3.4 g/dL
same,TBIL,6 h,0.1 mg/dL
same,TC,6 h,77.6 mg/dL
same,TG,6 h,76.6 mg/dL
same,TP,6 h,5.5 g/dL
same,gamma-GTP,6 h,1 IU/L
same,TERMINAL_BW,9 h,219.9 g
same,APTT,9 h,18.1 s
same,Bas,9 h,0.8%
same,Eos,9 h,1.2%
same,Fbg,9 h,215.6 mg/dL
same,Hb,9 h,13.2 g/dL
same,Ht,9 h,39.5%
same,Lym,9 h,77.6%
same,MCH,9 h,21.6 pg
same,MCHC,9 h,33.6%
same,MCV,9 h,64.3 fL
same,Mono,9 h,2%
same,Neu,9 h,18.4%
same,PT,9 h,12.6 s
same,Plat,9 h,113.5 x10_4/uL
same,RBC,9 h,614.2 x10_4/ul
same,Ret,9 h,6.6%
same,WBC,9 h,90.4 x10_2/uL
same,KIDNEY_L,9 h,1 g
same,KIDNEY_R,9 h,1 g
same,KIDNEY_TOTAL,9 h,2 g
same,LIVER,9 h,8.9 g
same,A/G,9 h,1.6
same,ALP,9 h,930.2 IU/L
same,ALT,9 h,33.2 IU/L
same,AST,9 h,71.4 IU/L
same,BUN,9 h,10.6 mg/dL
same,CRE,9 h,0.3 mg/dL
same,Ca,9 h,10.3 mg/dL
same,Cl,9 h,103.8 meq/L
same,DBIL,9 h,0.062 mg/dL
same,GLC,9 h,202.6 mg/dL
same,IP,9 h,9.9 mg/dL
same,K,9 h,3.8 meq/L
same,LDH,9 h,195.4 IU/L
same,Na,9 h,141.4 meq/L
same,PL,9 h,124 mg/dL
same,RALB,9 h,3.3 g/dL
same,TBIL,9 h,0.1 mg/dL
same,TC,9 h,68.8 mg/dL
same,TG,9 h,29.8 mg/dL
same,TP,9 h,5.4 g/dL
same,gamma-GTP,9 h,1.6 IU/L
same,TERMINAL_BW,24 h,238.9 g
same,APTT,24 h,19.4 s
same,Bas,24 h,0.8%
same,Eos,24 h,1%
same,Fbg,24 h,227.2 mg/dL
same,Hb,24 h,13.3 g/dL
same,Ht,24 h,39.7%
same,Lym,24 h,77.2%
same,MCH,24 h,21.1 pg
same,MCHC,24 h,33.6%
same,MCV,24 h,62.9 fL
same,Mono,24 h,3%
same,Neu,24 h,17.8%
same,PT,24 h,12 s
same,Plat,24 h,124.5 x10_4/uL
same,RBC,24 h,631.4 x10_4/ul
same,Ret,24 h,6.6%
same,WBC,24 h,82.1 x10_2/uL
same,KIDNEY_L,24 h,1.1 g
same,KIDNEY_R,24 h,1 g
same,KIDNEY_TOTAL,24 h,2.1 g
same,LIVER,24 h,11.8 g
same,A/G,24 h,1.5
same,ALP,24 h,1096 IU/L
same,ALT,24 h,42.8 IU/L
same,AST,24 h,84.8 IU/L
same,BUN,24 h,15.2 mg/dL
same,CRE,24 h,0.4 mg/dL
same,Ca,24 h,10.8 mg/dL
same,Cl,24 h,104.2 meq/L
same,DBIL,24 h,0.1 mg/dL
same,GLC,24 h,194.2 mg/dL
same,IP,24 h,7.7 mg/dL
same,K,24 h,4.3 meq/L
same,LDH,24 h,207.8 IU/L
same,Na,24 h,141 meq/L
same,PL,24 h,135.6 mg/dL
same,RALB,24 h,3.4 g/dL
same,TBIL,24 h,0.2 mg/dL
same,TC,24 h,68.6 mg/dL
same,TG,24 h,109.2 mg/dL
same,TP,24 h,5.6 g/dL
same,gamma-GTP,24 h,1.6 IU/L
